Conditions: Liquid, Vibrating tube method

CCOC(=O)CCC(=O)OCC [diethyl butanedioate]
Conditions	mass density [kg/m3]
283.56 K, 100010 kPa	1102.48
283.57 K, 100 kPa	1049.61
283.57 K, 1000 kPa	1050.21
283.57 K, 3000 kPa	1051.56
283.57 K, 5000 kPa	1052.88
283.57 K, 10000 kPa	1056.11
283.57 K, 15000 kPa	1059.25
283.57 K, 30000 kPa	1068.16
283.57 K, 40000 kPa	1073.71
283.57 K, 50000 kPa	1079
283.57 K, 60000 kPa	1084.1
283.57 K, 70000 kPa	1089.01
283.57 K, 80000 kPa	1093.63
283.57 K, 90010 kPa	1098.12
283.58 K, 20000 kPa	1062.29
283.58 K, 25000 kPa	1065.25
293.49 K, 100 kPa	1039.78
293.49 K, 20000 kPa	1053.11
293.49 K, 25000 kPa	1056.23
293.49 K, 40000 kPa	1065.07
293.49 K, 60000 kPa	1075.9
293.5 K, 1000 kPa	1040.41
293.5 K, 3000 kPa	1041.81
293.5 K, 5000 kPa	1043.2
293.5 K, 10000 kPa	1046.6
293.5 K, 15000 kPa	1049.91
293.5 K, 30000 kPa	1059.25
293.5 K, 50000 kPa	1070.61
293.5 K, 70000 kPa	1080.89
293.5 K, 80000 kPa	1085.77
293.51 K, 90000 kPa	1090.39
293.51 K, 100000 kPa	1094.9
303.42 K, 100 kPa	1028.98
303.42 K, 1000 kPa	1029.62
303.42 K, 20000 kPa	1042.98
303.42 K, 25000 kPa	1046.26
303.42 K, 60000 kPa	1066.78
303.42 K, 70000 kPa	1072.05
303.42 K, 80000 kPa	1077.09
303.43 K, 3000 kPa	1031.12
303.43 K, 5000 kPa	1032.59
303.43 K, 15000 kPa	1039.61
303.43 K, 30000 kPa	1049.4
303.43 K, 40000 kPa	1055.5
303.43 K, 50000 kPa	1061.26
303.43 K, 90000 kPa	1081.92
303.43 K, 100000 kPa	1086.58
303.44 K, 10000 kPa	1036.15
313.31 K, 15000 kPa	1030.05
313.31 K, 50000 kPa	1052.81
313.32 K, 5000 kPa	1022.61
313.32 K, 10000 kPa	1026.44
313.32 K, 30000 kPa	1040.39
313.32 K, 40000 kPa	1046.78
313.33 K, 100 kPa	1018.75
313.33 K, 1000 kPa	1019.44
313.33 K, 3000 kPa	1021.07
313.33 K, 20000 kPa	1033.63
313.33 K, 25000 kPa	1037.06
313.33 K, 60000 kPa	1058.52
313.33 K, 70000 kPa	1064.01
313.33 K, 80000 kPa	1069.21
313.33 K, 90000 kPa	1074.2
313.33 K, 100000 kPa	1078.99
323.18 K, 100 kPa	1008.44
323.18 K, 1000 kPa	1009.19
323.18 K, 3000 kPa	1010.86
323.18 K, 10000 kPa	1016.52
323.18 K, 15000 kPa	1020.37
323.18 K, 20000 kPa	1024.08
323.18 K, 25000 kPa	1027.7
323.19 K, 5000 kPa	1012.5
323.19 K, 30000 kPa	1031.17
323.19 K, 40000 kPa	1037.8
323.19 K, 50000 kPa	1044.06
323.19 K, 60000 kPa	1050.01
323.19 K, 70000 kPa	1055.67
323.19 K, 80000 kPa	1061.06
323.19 K, 90000 kPa	1066.22
323.19 K, 100000 kPa	1071.19
333.1 K, 100 kPa	998.31
333.1 K, 1000 kPa	999.11
333.1 K, 3000 kPa	1000.91
333.1 K, 5000 kPa	1002.64
333.11 K, 10000 kPa	1006.85
333.11 K, 15000 kPa	1010.94
333.11 K, 20000 kPa	1014.85
333.11 K, 25000 kPa	1018.62
333.11 K, 30000 kPa	1022.27
333.11 K, 40000 kPa	1029.2
333.11 K, 50000 kPa	1035.72
333.11 K, 60000 kPa	1041.91
333.11 K, 70000 kPa	1047.69
333.11 K, 80000 kPa	1053.26
333.11 K, 90000 kPa	1058.57
333.11 K, 100000 kPa	1063.7
342.97 K, 100 kPa	987.87
342.97 K, 15000 kPa	1001.22
342.97 K, 20000 kPa	1005.3
342.97 K, 30000 kPa	1013.07
342.97 K, 40000 kPa	1020.32
342.97 K, 50000 kPa	1027.1
342.97 K, 70000 kPa	1039.64
342.97 K, 90000 kPa	1050.91
342.97 K, 100000 kPa	1056.19
342.98 K, 1000 kPa	988.73
342.98 K, 3000 kPa	990.63
342.98 K, 5000 kPa	992.45
342.98 K, 10000 kPa	996.91
342.98 K, 25000 kPa	1009.24
342.98 K, 60000 kPa	1033.53
342.98 K, 80000 kPa	1045.43
352.82 K, 100 kPa	977.64
352.82 K, 1000 kPa	978.58
352.82 K, 3000 kPa	980.59
352.82 K, 5000 kPa	982.53
352.82 K, 10000 kPa	987.26
352.82 K, 15000 kPa	991.79
352.83 K, 20000 kPa	996.08
352.83 K, 25000 kPa	1000.24
352.83 K, 30000 kPa	1004.25
352.83 K, 40000 kPa	1011.8
352.83 K, 50000 kPa	1018.87
352.83 K, 60000 kPa	1025.54
352.83 K, 70000 kPa	1031.82
352.83 K, 80000 kPa	1037.81
352.83 K, 90000 kPa	1043.47
352.83 K, 100010 kPa	1048.95
362.66 K, 100 kPa	967.3
362.66 K, 1000 kPa	968.28
362.66 K, 3000 kPa	970.41
362.66 K, 60000 kPa	1017.41
362.67 K, 5000 kPa	972.48
362.67 K, 10000 kPa	977.45
362.67 K, 15000 kPa	982.21
362.67 K, 20000 kPa	986.74
362.67 K, 25000 kPa	991.07
362.67 K, 30000 kPa	995.26
362.67 K, 40000 kPa	1003.16
362.67 K, 50000 kPa	1010.5
362.67 K, 70000 kPa	1023.98
362.67 K, 80000 kPa	1030.14
362.67 K, 90000 kPa	1036.01
362.67 K, 100000 kPa	1041.65

From the NIST ThermoML archive (doi:10.1021/acs.jced.5b00385)
